Experimental data taken from ChEMBL document CHEMBL3045852, “Synthesis of limonoid CDE fragments related to limonin and nimbinim” (2010).

System: Spodoptera littoralis
Experiment: Antifeedant activity against Spodoptera littoralis
Format: functional

| SMILES | AFI |
| --- | --- |
| CC1(C)CC(=O)C[C@@]2(C)[C@H](c3ccoc3)C(=O)[C@H]3O[C@@]312 (relative stereo) | 45% |
| CC1(C)CC(=O)C[C@@]2(C)[C@H](c3ccsc3)C(=O)[C@H]3O[C@@]312 | 24% |
